Data published in publication PMC8284440, “Toward New Transmission-Blocking Combination Therapies: Pharmacokinetics of 10-Amino-Artemisinins and 11-Aza-Artemisinin and Comparison with Dihydroartemisinin and Artemether” (Antimicrobial Agents and Chemotherapy, 2021).
Read-outs that look alike come from different tables or passages of the source.

Assays:
[1] = test system: early stage (>90% stage I-III) P. falciparum NF54 gametocytes; conditions: cited from earlier work
[2] = test system: P. falciparum W2; parameters: method as in ref 5 (supplement; main text 63); conditions: CQ resistant; ref 5 (supplement; main text 63); read-out: Antimalarial activities IC50 W2; cited from earlier work
[3] = test system: P. falciparum TM93-C1088; parameters: method as in ref 5 (supplement; main text 63); conditions: atovaquone and CQ resistant; ref 5 (supplement; main text 63); read-out: Antimalarial activities IC50 TM93-C1088; cited from earlier work
[4] = test system: P. falciparum W2; parameters: method as in ref 4 (supplement; main text 62); conditions: Table S2, ± SEM; ref 4 (supplement; main text 62); read-out: Antimalarial activities IC50 W2; cited from earlier work
[5] = test system: P. falciparum TM91-C235; parameters: method as in ref 5 (supplement; main text 63); conditions: CQ and mefloquine resistant; ref 5 (supplement; main text 63); read-out: Antimalarial activities IC50 TM91-C235; cited from earlier work
[6] = test system: murine cerebral malaria; parameters: method as in PMID 20691118; conditions: prescribed low dose levels; cited from earlier work
[7] = test system: P. falciparum 7G8; parameters: method as in ref 5 (supplement; main text 63); conditions: CQ resistant; ref 5 (supplement; main text 63); read-out: Antimalarial activities IC50 7G8; cited from earlier work
[8] = test system: P. falciparum TM-C2B; parameters: method as in ref 5 (supplement; main text 63); conditions: atovaquone and CQ resistant; ref 5 (supplement; main text 63); read-out: Antimalarial activities IC50 TM-C2B; cited from earlier work
[9] = test system: P. falciparum NF54; parameters: method as in ref 4 (supplement; main text 62); conditions: Table S2, ± SEM; ref 4 (supplement; main text 62); read-out: Antimalarial activities IC50 NF54; cited from earlier work
[10] = test system: P. falciparum K1; parameters: method as in ref 4 (supplement; main text 62); conditions: Table S2, ± SEM; ref 4 (supplement; main text 62); read-out: Antimalarial activities IC50 K1; cited from earlier work
[11] = test system: late stage (>90% stage IV and V) P. falciparum NF54 gametocytes; conditions: cited from earlier work
[12] = test system: P. falciparum K1; parameters: method as in ref 1 and 2 (supplement; main text 47, 48); conditions: Table S1, ± SEM; ref 1 and 2 (supplement; main text 47, 48); cited from earlier work
[13] = Preliminary PK assessment in the murine model (toxicity); format: in vivo
Description: Overall, artemiside, artemisone, and the arylurea are the frontrunners in terms of global efficacies and relatively low toxicities in vitro. However, expression of therapeutic efficacy depends not only on biological activity but also on pharmacokinetic (PK) properties. This becomes important for the envisaged drug combinations ([67]). We report here on the in vitro absorption, distribution, metabolism, and excretion (ADME) properties and PK measurement in a murine model of the compounds of Fig. 2. […] The data are directly compared to those of DHA and artemether. An evaluation of the compounds to be taken forward is then presented.

[14] = test system: Chinese hamster ovary (CHO) cells; conditions: cited from earlier work
[15] = test system: P. falciparum NF54; parameters: method as in ref 1 and 2 (supplement; main text 47, 48); conditions: Table S1, ± SEM; ref 1 and 2 (supplement; main text 47, 48); cited from earlier work
[16] = test system: P. falciparum W2; parameters: method as in ref 1 and 2 (supplement; main text 47, 48); conditions: Table S1, ± SEM; ref 1 and 2 (supplement; main text 47, 48); cited from earlier work
[17] = test system: HepG2; conditions: cited from earlier work
[18] = test system: liver stage P. berghei ANKA GFP-Luc-SMcon sporozoites; parameters: method as in ref 2 (supplement; main text 48); conditions: ref 2 (supplement; main text 48), cited from earlier work; for IC50: 48 h, ± SD
[19] = test system: P. falciparum D6; parameters: method as in ref 5 (supplement; main text 63); conditions: CQ sensitive; ref 5 (supplement; main text 63); read-out: Antimalarial activities IC50 D6; cited from earlier work
[20] = parameters: method as in PMID 25759576; conditions: p.o., mouse; cited from earlier work
[21] = parameters: method as in PMID 25759576; conditions: i.v., mouse; cited from earlier work
[22] = Table S3, ± SEM, ref 1 and 2 (supplement; main text 47, 48), read-out: Early Stage (EG, Luc 48 h) IC50
[23] = Table S3, ± SEM, ref 1 and 2 (supplement; main text 47, 48), read-out: Late Stage (LG, Luc 72 h) IC50

In the case of `C[C@H]1[C@H](OC(=O)CCC(=O)O)O[C@@H]2O[C@@]3(C)CC[C@H]4[C@H](C)CC[C@@H]1[C@@]24OO3` [Artesunate 4, artesunate], the IC50 ([1]; Table S4, ± SEM, n = 3, ref 4 (supplement; main text 62), read-out: Early stage IC50 (Luciferase 48 h)) is given as 62.8 ± 3.14 nM, the IC50 [2] is given as 3 ± 1.6 nM and the IC50 [3] is given as 1.4 ± 0.1 nM. For the same compound, the IC50 [4] was 2.4 ± 0.2 nM, the IC50 [5] was 2.9 ± 1.4 nM and the “Cure of murine cerebral malaria” value [6] was “no cure”. For the same compound, the IC50 [7] was 1.5 ± 0.2 nM, the IC50 [8] was 2.5 ± 0.5 nM and the IC50 [9] was 3 ± 0.29 nM. For the same compound, the IC50 [10] was 3.26 ± 0.2 nM and the IC50 ([11]; Table S4, n = 1, ref 4 (supplement; main text 62), read-out: Late stage IC50 (Luciferase 72 h)) was 171 nM.

For `C[C@H]1[C@H](Nc2ccc(F)cc2)O[C@@H]2O[C@@]3(C)CC[C@H]4[C@H](C)CC[C@@H]1[C@@]24OO3` [Arylamine 8], the IC50 [12] is listed as 0.64 ± 0.1 nM, the “Toxicity in preliminary PK assessment” value [13] is listed as “untoward toxicity” and the IC50 [1, 22] is listed as 38.2 ± 9 nM. The EC50 ([14]; read-out: Cytotoxicity EC50 CHO, MTT, ±SD, ref 1 and 2 (supplement; main text 47, 48)) was 2900 ± 1400 nM, the IC50 [15] was 1.3 ± 0.6 nM and the IC50 [11, 23] was 16.4 ± 6.38 nM. The IC50 [16] was 3 ± 1 nM.

For `O=C1C(O)=C([C@H]2CC[C@H](c3ccc(Cl)cc3)CC2)C(=O)c2ccccc21` [Atovaquone], the EC50 [17] is listed as greater than 250 nM, the IC50 [3] is listed as 18800 nM and the IC50 [18] is listed as 2.52 ± 0.997 nM. The Maximum inhibition % ([18]; at 0.5 µM) was 94.85±2.76%, the IC50 [5] was 2.2 ± 0.7 nM and the IC50 [7] was 3.1 ± 0.9 nM. For the same compound, the IC50 [8] was 31800 nM.

In the case of `CCN(CC)CCCC(C)Nc1ccnc2cc(Cl)ccc12` (stereo not drawn) [Chloroquine], the IC50 [12] is given as 154 ± 14 nM, the IC50 [2] is given as 195 ± 70 nM and the IC50 [3] is given as 360 ± 38 nM. The IC50 [5] was 70 ± 12 nM, the IC50 [7] was 84 ± 18 nM and the IC50 [15] was 10 ± 3 nM. The IC50 [8] was 95 ± 23 nM and the IC50 [19] was 16 ± 2 nM.

For `OC(c1cc(C(F)(F)F)nc2c(C(F)(F)F)cccc12)C1CCCCN1` (stereo not drawn) [Mefloquine MFQ, Mefloquine], the IC50 [3] is listed as 16 ± 5 nM, the IC50 [5] is listed as 107 ± 41 nM and the IC50 [7] is listed as 5.4 ± 1.7 nM. For the same compound, the IC50 [8] was 130 ± 51 nM.

For `CN(C)c1ccc2nc3ccc(=[N+](C)C)cc-3sc2c1` [Methylene Blue, reference compound], the IC50 [12] is given as 6.45 ± 0.3 nM, the IC50 [1, 22] is given as 95 nM and the EC50 [14] is given as 52600 ± 4500 nM. The IC50 [15] was 5 ± 0.8 nM, the IC50 [11, 23] was 143 nM and the IC50 [16] was 5.13 ± 0.31 nM.

For `COc1ccc(C[C@H](N)C(=O)N[C@H]2[C@@H](O)[C@H](n3cnc4c(N(C)C)ncnc43)O[C@@H]2CO)cc1` [Puromycin], the EC50 [17] is listed as 117 nM, the IC50 [18] is listed as 22.7 ± 4.53 nM and the Maximum inhibition % ([18]; at 5 µM) is listed as 110±4.24%.

In the case of `COc1cc(C)c2c(Oc3cccc(C(F)(F)F)c3)c(OC)cc(NC(C)CCCN)c2n1` (stereo not drawn) [Tafenoquine], the AUC [20] is given as 11,368 ± 1,232 min/μmol/liter, the Cmax [20] is given as 3.06 ± 0.37 µM and the F [20] is given as 55 ± 2%. The Tmax [20] was 9.0 ± 1.0 h, the AUC [21] was 2,363 ± 146 min/μmol/liter and the CLint [21] was 1.84 mL/min/kg. For the same compound, the V [21] was 2.34 ± 0.0 L/kg and the t1/2 [21] was 43.7 ± 1.5 h.
